{"source": "patent US9863953B2", "about": "“Method for determining prognosis of cancer” (KYOTO UNIVERSITY, priority 2013, dated 2018)", "key": {"RKO human CRC cells [1]": {"tested_on": "RKO human CRC cells", "assay": "Matrigel invasion assay, RKO cells", "type": "cell-based", "details": "for Matrigel invasion of RKO cells: inhibitor treatment 16 h prior to assay", "procedure": "(§1) Matrigel invasion assays were performed as previously described using Matrigel (BD) {Sonoshita, 2011}. For TEM assay, human umbilical vein endothelial cell (HUVEC) was seeded in the upper chamber of Transwell (Corning). One day (24 h) later, EGFP-labeled CRC cells were plated onto the layer of HUVEC. After 24 h, CRC cells migrated to the lower side of the membrane were counted under a fluorescent microscope."}, "HCT116 cells [2]": {"tested_on": "HCT116 cells", "assay": "Matrigel invasion assay, HCT116 cells", "type": "cell-based, human", "procedure": "as §1"}, "HCT116 cells [3]": {"tested_on": "HCT116 cells", "assay": "Attachment assay of CRC cells to lung endothelial cell layer", "type": "cell-based, human", "procedure": "Attachment assay was performed according to the established protocol {Reymond, 2012}. Briefly, human lung endothelial cells were plated onto collagen-coated dish. After they reached confluent to form a layer, EGFP-labeled CRC cells were plated onto it. Fifteen minutes later, floating cells were washed with PBS, and the numbers of CRC cells adhering to the endothelial layer were counted under a fluorescent microscope."}, "Notch receptor": {"tested_on": "Notch receptor", "assay": "Notch receptor cleavage (NICD) after EDTA treatment, IP-western", "type": "cell-based, human", "details": "10 mM EDTA; anti-Notch1 (C-term) antibody", "procedure": "(§2) Cultured CRC cells were washed with PBS, treated with 10 mM EDTA in PBS for 2 minutes, and incubated again in culture media. […] After incubation for defined period, cells were lysed and cleaved Notch and GTP-Rho was detected. DAPT (Calbiochem) were applied to cultured CRC cells to inhibit its γ-secretase activity.\nABL1B cDNA was prepared from cDNA pool of human colon and tagged with hemaglutinin (HA) sequence to construct ABL1B-HA. The wild-type cDNA was mutagenized by QuikChange Lightning Multi Site-Directed Mutagenesis Kit (Agilent) to derive kinase-dead ABL1B(K290R)-HA mutant. These ABL1B constructs were placed into pEFBosneo expression vector (provided by Shigekazu Nagata, Kyoto University, Japan). DAB1-Flag cDNA was inserted into pcDNA3 (Invitrogen). TRIO cDNA (provided by Anne Debant, CRBM-CNRS, France) was tagged with T7 sequence and inserted into pCX expression vector carrying CAG promoter and rabbit β-globin poly(A) (provided by Masaru Okabe, Osaka University, Japan). NICD-Myc expression vector was provided by Tasuku Honjo, Kyoto University, Japan. These expression vectors were transfected into CRC or HEK293T cells using Lipofectamine LTX (Invitrogen). Sixteen hours post-transfection, the cells were lysed in lysis buffer (10 mM Tris-Cl, 1 mM EDTA, 150 mM NaCl and 1% NP-40). The supernatants were mixed with agarose conjugated with anti-HA, Flag, T7, or Myc antibodies (MBL). […]"}, "Rho": {"tested_on": "Rho", "assay": "Active Rho (GTP-Rho) pull-down assay in RKO cells", "type": "cell-based, human", "procedure": "GTP-Rho was pulled-down and detected by using Rho activation assay kit (Thermo) according to the manufacturers' protocol. Briefly, tissues or CRC cells were lysed with lysis buffer, and GTP-Rho in the lysates was pulled-down using Rhotekin and detected by anti-Rho antibody in western analysis.\n(§3) Recombinant DLL4 (rDLL4) (R&D) was resuspended with PBS. For scratch and GTP-Rho pull-down assays, 1 μg was put into 6-well culture plate to coat its surface with rDLL4 at 0.1 μg/cm^2. For q-RT-PCR assays, the plate surface was coated with rDLL4 at 0.1-1 μg/cm^2. After overnight incubation at 4-degree, the plates were washed once with PBS and plated with CRC cells. For expression analysis of HES1 and DAB1, cells were lysed and mRNA was extracted after four hours.\nas §2"}, "DAB1": {"tested_on": "DAB1", "assay": "DAB1 mRNA quantitative RT-PCR in LS174T cells on rDLL4", "type": "cell-based, human", "procedure": "as §3\nTaqMan primers/probes for quantification of HES1, DAB1, ABL1, and ABL2 mRNAs were purchased from ABI. ChIP analyses were performed by using CRC cells and anti-Rbpj (Institute of Immunology) and anti-NICD (Cell Signaling Technology) antibodies according to published protocol (Kakizaki et al., 2010). Precipitated fragments of genomic DNA were tested for enrichment of promoter regions of HES1 gene by SYBR green (ABI) using hHES1ChIP.F ([…]) (SEQ ID NO: 4) and hHES1ChIP.R ([…]) (SEQ ID NO: 5) primers that sandwich high affinity binding sequence of Rbpj. Similarly, enrichment of DAB1 promoter fragments was quantified by hDAB1ChIP.F2 ([…]) (SEQ ID NO: 6) and hDAB1ChIP.R2 ([…]) (SEQ ID NO: 7) primers."}, "HCT116": {"tested_on": "HCT116", "assay": "Transendothelial migration (TEM) assay, HCT116 cells", "type": "cell-based, human", "details": "HCT116, data not shown", "procedure": "as §1"}, "RKO human CRC cells [4]": {"tested_on": "RKO human CRC cells", "assay": "Transendothelial migration (TEM) assay, RKO cells", "type": "cell-based", "details": "inhibitor treatment 16 h prior, HUVEC layer, 24 h", "procedure": "as §1"}, "TRIO": {"tested_on": "TRIO", "assay": "Cell-free RhoGEF GTP exchange assay", "type": "biochemical, human", "details": "TRIO(WT) from imatinib-treated HEK293T transfectants; recombinant RhoA, mant-GTP, 10 min", "text": "First, we transfected HEK293T cells with an expression plasmid for T7-TRIO (either WT, Y2681F or G2699V), and pulled-down each TRIO protein from cell lysates using agarose conjugated with anti-T7 antibody (MBL). Then we mixed the TRIO fraction with recombinant RhoA in the presence of mant-GTP (Cytoskeleton) that emits stronger fluorescence when bound to Rho small GTPases (Rossman et al., 2002)."}, "[5]": {"tested_on": "Apc/Aes compound mutant mice", "assay": "Tumor invasion histopathology in Apc/Aes compound mutant mice", "type": "in vivo, mouse", "details": "50 mg/kg/day i.p. for 9 weeks", "text": "Apc^+/Δ716 mutant mice were generated and maintained as described previously {Oshima, 1995}. Apc^+/Δ716Aes^Floxed/FloxedvCre^ERT2 (abbreviated as Apc/Aes) mice were constructed as reported to knockout Aes in Apc^+/Δ716 mice by virtue of Cre^ERT2 whose expression is driven by intestinal epithelium-specific villin promoter {Sonoshita, 2011}. Rbpj floxed allele was constructed as reported {Han, 2002}, obtained from RIKEN BRC, and crossed with Apc/Aes mice to derive Apc^+/Δ716Aes^Floxed/FloxedRbpj^Floxed/FloxedvCre^ERT2 (Apc/Aes/Rbpj) mice. Dab1 floxed allele was constructed (Imai et al., in preparation) and crossed with Apc/Aes mice to obtain Apc^+/Δ716Aes^Floxed/FloxedDab1^Floxed/FloxedvCre^ERT2 (Apc/Aes/Dab1) mice. Tumor histopathology in compound mutant mice was analyzed at 12 weeks of age. […] Total of ˜100 tumors with diameters larger than 2 mm from 5 mice were scored for each mutant genotype. CRC cell lines were obtained from ATCC. Upon transplantation into the rectal smooth muscle, CRC cells formed a visible primary tumor within a week. Six weeks later, mice were euthanized and examined for metastatic foci under a fluorescent microscope (Leica). All animal experiments were conducted according to the protocol approved by the Animal Care and Use Committee of Kyoto University."}}, "note": "“Also recorded” adds a separate entry of the source."}
{"compound": "CCN(CC)CCCC(C)Nc1nc(C)cc(Nc2ccc3nc(C)cc(N)c3c2)n1", "note": "(centres unmarked) [NSC23766]", "values": [{"measurement": "Matrigel invasion of RKO cells", "setting": "RKO human CRC cells [1]", "result": "did not affect"}, {"measurement": "Matrigel invasion of RKO cells", "setting": "RKO human CRC cells [1]; listed as NSC27366", "result": "Little effect"}]}
{"compound": "Cc1nc(Nc2ncc(C(=O)Nc3c(C)cccc3Cl)s2)cc(N2CCN(CCO)CC2)n1.O", "note": "[dasatinib, N-(2-chloro-6-methylphenyl)-2-[[6-[4-(2-hydroxyethyl)-1-piperazinyl]-2-methyl-4-pyrimidinyl]amino]-5-thiazole carboxamide monohydrate]", "values": [{"measurement": "Matrigel invasion of RKO cells", "setting": "RKO human CRC cells [1]", "result": "suppressed the invasion significantly"}, {"measurement": "HCT116 cell invasion in Matrigel", "setting": "HCT116 cells [2]; dasatinib at 0.01 μm, FIG. 10A", "result": "tight suppression"}]}
{"compound": "C[C@H](NC(=O)Cc1cc(F)cc(F)c1)C(=O)N[C@H](C(=O)OC(C)(C)C)c1ccccc1", "note": "[DAPT]", "values": [{"measurement": "Number of CRC cells remaining attached to the EC layer", "setting": "HCT116 cells [3]; HCT116 treated 2 hours, washing at 15 min post plating", "result": "reduced"}, {"measurement": "EC adhesion of CRC cells with RBPJ knocked-down", "setting": "HCT116 cells [3]; RBPJ-knockdown HCT116, DAPT 2 hours", "result": "prevented"}, {"measurement": "Cleaved Notch receptor (NICD) upon EDTA treatment", "setting": "Notch receptor", "result": "blocked; also recorded: inhibited"}, {"measurement": "Rho activation (GTP-Rho) after Notch receptor activation with EDTA", "setting": "Rho; RKO cells, 10 μM DAPT for 12 h, then 10 mM EDTA", "result": "inhibited; also recorded: Suppression"}, {"measurement": "DAB1 mRNA expression induced by rDLL4", "setting": "DAB1; LS174T, 10 μM DAPT for 24 h, rDLL4-coated dishes, 4 h", "result": "inhibited"}]}
{"compound": "CC(C)(C)n1nc(-c2ccc(Cl)cc2)c2c(N)ncnc21", "note": "[PP2]", "values": [{"measurement": "effect on the RKO cell invasion in culture", "setting": "RKO human CRC cells [1]; RKO cell invasion in culture, FIG. 10A", "result": "~20", "unit": "%"}, {"measurement": "Matrigel invasion of RKO cells", "setting": "RKO human CRC cells [1]", "result": "only a minor inhibition"}, {"measurement": "Matrigel invasion", "setting": "HCT116 cells [2]; PP2 at 10 μm, FIG. 10A", "result": "only a minor effect"}]}
{"compound": "rDLL4: recombinant extracellular domain of Notch ligand DLL4 (R&D), immobilized on dish surface", "values": [{"measurement": "Rho activation (GTP-Rho)", "setting": "Rho; cultured CRC cells on dishes coated with rDLL4", "result": "activated"}, {"measurement": "DAB1 mRNA expression", "setting": "DAB1; LS174T on immobilized rDLL4 0.1-1 μg/cm^2, 4 h, dose-dependent", "result": "increased; also recorded: induces"}]}
{"compound": "C[C@@H](N)[C@H]1CC[C@H](C(=O)Nc2ccncc2)CC1", "note": "[Y-27632]", "values": [{"measurement": "Matrigel invasion of RKO cells", "setting": "RKO human CRC cells [1]", "result": "suppresses"}, {"measurement": "Matrigel invasion of HCT116 cells", "setting": "HCT116 cells [2]; HCT116, data not shown", "result": "suppressed"}, {"measurement": "Transendothelial migration (TEM) of HCT116 cells", "setting": "HCT116", "result": "suppressed"}, {"measurement": "Transendothelial migration (TEM) of RKO cells", "setting": "RKO human CRC cells [4]", "result": "suppresses"}]}
{"compound": "Cc1ccc(NC(=O)c2ccc(CN3CCN(C)CC3)cc2)cc1Nc1nccc(-c2cccnc2)n1", "note": "[imatinib, 4-(4-methylpiperazin-1-ylmethyl)-N-[4-methyl-3-(4-(pyridin-3-yl)-pyrimidin-2-ylamino-)phenyl]-benzamide]", "values": [{"measurement": "Matrigel invasion of RKO cells", "setting": "RKO human CRC cells [1]", "result": "blocks"}, {"measurement": "Capacity of Rho activation (RhoGEF activity) of TRIO(WT) purified from imatinib-treated cells", "setting": "TRIO", "result": "significantly decreased"}, {"measurement": "Rho activation (GTP-Rho) induced by EDTA", "setting": "Rho; RKO cells, pull-down 5 minutes after EDTA, dose-dependent", "result": "blocked; also recorded: inhibits"}, {"measurement": "tumor size or number", "setting": "[5]", "result": "without changing"}, {"measurement": "CRC invasion (depth of tumor invasion)", "setting": "[5]; 50 mg/kg/day", "result": "significant suppression; also recorded: suppresses"}]}
